According to patent US7951538B2, “Method to determine the risk for side effects of an SSRI treatment in a person” (The Board of Trustees of the Leland Stanford Junior …, priority 2001, dated 2011):

Columns and labels:
[1] = test system: patients with major depression; assay: Improvement in mood on the Hamilton Depression Rating Scale over the 8 week treatment period; type: in vivo, human; conditions: not affected by the 102 T/C polymorphism
Description: (§1) All subjects were 65 years of age or older and had been free of 10 major medical problems for at least 3 months. […] Patients were excluded for clinically significant laboratory abnormalities, drug or alcohol abuse, psychosis, recent suicide attempt, and psychiatric conditions other than major depression, or treatment with antidepressant medications within 7 days of commencing the study.
On day 14, doses were increased to 30 mg once daily. […] All patients Were genotype for the 102 T/C polymorphism using the method described above.

[2] = test system: patients with major depression; conditions: human, in vivo
Excerpt: as §1
Genomic DNA was extracted from EDTA-treated whole blood using the Puregene DNA extraction kit (Gentra Systems). Genotype for the 102 T/C DNA sequence polymorphism in the 5-HT2A receptor gene was determined using the method of Du et al. (Am J Med Genet. 2000 Feb. 7;96(1):56-60). […]
Discontinuations were classified as due to any event, and as due to an adverse event. […] Body weight was determined at baseline and at each subsequent visit. Actual medication taken Was determined by counting the number of tablets remaining at each clinic visit. Dosing compliance was determined by as total number of medication doses taken divided by total number of capsules given. […]

## CN1CCN2c3ncccc3Cc3ccccc3C2C1 (stereo not drawn) [mirtazapine]
[1]
  improvement in mood (decreased depression), Hamilton Depression Rating Scale: statistically significant improvement
[2]
  probability of discontinuing treatment due to side effects: no greater probability
  severity of side effects: no greater severity
